Assays:
Format in all cases: physicochemical
[1] = Physical stability of crystal forms at high relative humidity (one week storage)
Text: X-ray diffraction data described herein was obtained by the powder diffraction method. X-Ray powder diffraction data were obtained using methods known in the art with a SCINTAG powder X-Ray diffractometer model X'TRA equipped with a solid state detector. Copper radiation of 1.5418 Å was used. A round aluminum sample holder with a round zero background quartz plate, with cavity of 25 mm×0.5 mm.
Thermogravimetric analysis (TGA) is a technique of thermal analysis well known in the art and measures the change in weight of a sample as a function of temperature. The technique is particularly well suited for measurement of, for example, decomposition and desolvation. TGA results reported herein were obtained using a Mettler TG50. Sample size was between about 6 and about 15 mg. Samples were analyzed at a heating rate of 10° C./min from 25° C. to 250 C. The oven was purged with nitrogen gas at a flow rate of 40 ml/min. Standard alumina crucibles covered by lids with one hole were used.
(§1) The stability of crystalline forms of risedronate sodium against transformation to form A is measured by exposing a sample to an atmosphere having a percent relative humidity (RH or %RH) of at least about 50% at a temperature greater than room temperature for a period of time. It is convenient to evaluate the stability of a crystalline form of risedronate sodium against transformation to form A by exposing a sample to an atmosphere having RH of about 75% at a temperature of 40° C. for a period of at least 3 months. The experience of the skilled artisan teaches that a pharmaceutical that is stable under these conditions will be stable for at least 2 years at room temperature.

[2] = Stability of form B against transformation to form A at 40° C. / 75% RH
Description: X-ray diffraction analysis can be used to detect and quantify one crystalline form of risedronate sodium in another.
as §1

[3] = Stability test of risedronate tablets at 40° C., 75% RH (crystal form by X-Ray powder diffraction); conditions: 5 months, stressed conditions of 40° C. and 75% RH
Text: The crystal form (detected from X-Ray powder diffraction data) of Risedronate active ingredient in the tablet are shown in the following table.

[4] = Physical stability of crystal forms at high relative humidity (one week storage); conditions: 80%-100% RH at room temperature for at least one week; 'not substantially' = not more than about 20%
[5] = relative humidity 80%, one week storage, listed as D (MS-273), monosodium salt

O=P([O-])(O)C(O)(Cc1cccnc1)P(=O)(O)O.[Na+] [Form A, 1-hydroxy-2(3-pyridinyl)ethylidene bis phosphonic acid monosodium salt, reference compound]
TGA Weight Loss (%) ([1]; relative humidity 80%, one week storage, listed as A (LB-91), monosodium salt): 13.6%

O=P([O-])(O)C(O)(Cc1cccnc1)P(=O)(O)O.[Na+] [Form B, 1-hydroxy-2(3-pyridinyl)ethylidene bis phosphonic acid monosodium salt]
Part of form B that transforms to form A ([2]; RH of 75% at 40° C. for at least three months): less than 20% | Conversion to form A hemipentahydrate ([2]; storage at 40° C. and 75% RH for 6 months, 'not substantially' = not more than about 20%): does not substantially convert | Stability of form B in tablets [3]: stable | Conversion to form A hemipentahydrate ([1]; 75% to 100% RH for one week or more, 'not substantially' = not more than about 20%): does not substantially convert | TGA Weight Loss (%) ([1]; relative humidity 80%, one week storage, listed as B (LB-89), monosodium salt): 6.5%

O=P([O-])(O)C(O)(Cc1cccnc1)P(=O)(O)O.[Na+] [Form C, 1-hydroxy-2(3-pyridinyl)ethylidene bis phosphonic acid monosodium salt]
Conversion to form A [4]: does not substantially convert | TGA Weight Loss (%) ([1]; relative humidity 80%, one week storage, listed as C (LB-87), monosodium salt): 16.0% | Resulting form ([1]; relative humidity 80%, one week storage, listed as form C, monosodium salt): a mixture of form C and form H

O=P([O-])(O)C(O)(Cc1cccnc1)P(=O)(O)O.[Na+] [Form D, 1-hydroxy-2(3-pyridinyl)ethylidene bis phosphonic acid monosodium salt]
Resulting form [1, 5]: D > B | TGA Weight Loss (%) [1, 5]: 1.1% | Resulting form ([1]; relative humidity 80%, one week storage, listed as form D, monosodium salt): a mixture of form D and form B | Resulting form ([1]; relative humidity 80-100%, one week storage, monosodium salt): form B

O=P([O-])(O)C(O)(Cc1cccnc1)P(=O)(O)O.[Na+] [Form E, 1-hydroxy-2(3-pyridinyl)ethylidene bis phosphonic acid monosodium salt]
TGA Weight Loss (%) ([1]; relative humidity 80%, one week storage, listed as E (MS-277), monosodium salt): 14.0% | Resulting form ([1]; relative humidity 80%, one week storage, listed as form E, monosodium salt): form A with a small quantity of form D

O=P([O-])(O)C(O)(Cc1cccnc1)P(=O)(O)O.[Na+] [Form F, 1-hydroxy-2(3-pyridinyl)ethylidene bis phosphonic acid monosodium salt]
TGA Weight Loss (%) ([1]; relative humidity 20-60%, one week storage): 4-6% | Resulting form ([1]; relative humidity 80%, one week storage, listed as form F, monosodium salt): a mixture of form BB | TGA Weight Loss (%) ([1]; relative humidity 80-100%, one week storage): 11.3-12.3% | Resulting form ([1]; relative humidity 80-100%, one week storage, listed as F (LB-104 160 C. 8 hr), monosodium salt): BB > A | Resulting form ([1]; relative humidity 80-100%, one week storage, listed as form F, monosodium salt): form BB | Resulting form ([1]; relative humidity 100%, one week storage, listed as form F, monosodium salt): form BB | Rearrangement to the hemipentahydrate form ([1]; up to 100% relative humidity, one week storage): does not substantially rearrange

O=P([O-])(O)C(O)(Cc1cccnc1)P(=O)(O)O.[Na+] [Form G, 1-hydroxy-2(3-pyridinyl)ethylidene bis phosphonic acid monosodium salt]
TGA Weight Loss (%) ([1]; relative humidity 20-80%, one week storage): 9.4-10.2% | TGA Weight Loss (%) ([1]; relative humidity 100%, one week storage): 12.6% | Resulting form ([1]; relative humidity 100%, one week storage, listed as G (MS-257 160 C. 8 hr), monosodium salt): G + A | Resulting form ([1]; relative humidity 100%, one week storage, listed as form G, monosodium salt): a mixture of form G and form A
